Results as given in US20200170968A1 (priority 2014, published 2020).

How the values were obtained:
[1] = system: HIV-1; assay: HIV replication in acutely infected PBMC / lymphocytes; type: cell-based
Description: In some embodiments, the present invention relates to a method for inhibiting HIV replication. Data is attached reporting the results of an HIV study in lymphocytes with 100% block of replication at 20 mM concentration.
(§1) Peripheral blood mononuclear cells (PBMC) were acutely infected with HIV-1 and stimulated with NACA. Cell viability was measured in HIV infected PBMCs with varying concentrations of NACA.

[2] = system: Chronically HIV-infected U1 cells (monocytes); assay: Reverse transcriptase (RT) activity as readout of virion production in chronically HIV-infected U1 cells; type: cell-based
[3] = system: U1 cells; assay: U1 cell viability and proliferation ([3H]-thymidine incorporation); type: cell-based; details: HIV-infected U1 cells
Description: Chronically HIV-infected U1 cells (monocytes) were stimulated for 6 hours in the presence of NACA. Cytokines (IL-6, […]) or PMA were added and maintained in the cell cultures for 6 days, collecting supernatants daily. Cell viability and proliferation were checked by optical microscopy, and [3H]-thymidine incorporation, and calcein AM assay. Reverse transcriptase-polymerase chain reaction (RT-PCR) and reverse transcriptase (RT) activity assay as readout of virion production.

[4] = system: HIV particles; assay: Infectivity of viral particles produced in the presence of NACA (TZM-b1 luciferase); type: cell-based
Description: (§2) To measure the infectivity of particles produced in the presence of the compounds, ACH-2 cells (1×10^6 cells/ml) were cultured with 100 nM PMA in the presence of the indicated amount of NACA or DMSO (negative control). After 3 days, the p24 content of the clarified supernatant (see 2.3 Virus expression) was measured. The supernatant was used for an infectivity test (see 2.4 Infectivity test) without the addition of any compound to the wells. The final dilution of the viral supernatant in the infectivity test was 1:100. A control experiment was performed, in which virus particles produced without the addition of NACA, were used for the infectivity test.
For the data in FIG. 15B, the clarified supernatant was further used for an infectivity test without the addition of any compound to the wells. The NACA amount stated in the graph refers to the amount in which the HIV producing cells were grown. TZM-b1 cells were infected with the diluted virus suspensions in a total of 0.2 ml DMEM (total dilution of virus supernatant: 1:100). After 40 h, the cells were assayed for luciferase activity. Additionally, a control experiment was performed, in which virus particles produced in the control set up, were used for the infectivity test. The same amount of NACA that could have been carried over with the virus containing supernatant in the original experiment was added to the infectivity test (final concentration: 1/100 of the indicated amount in the viral growth culture). The value for the control was set to 100% in each individual repeat and all other values were normalised these reference values. The data are means of three independent experiments; the error bars represent the SEM. P-values were calculated between the vehicle control and the individual treatments. P-values are indicated if significant (*: p<0.05; **: p<0.01; ***:p<0.001).

[5] = system: HIV-1 (IIIB); assay: Inhibition of HIV-1 replication in CEM cells (giant cell / syncytia formation); type: cell-based; details: for EC50: concentration required to protect CEM cells against the cytopathogenicity of HIV by 50%, HIV-1 (IIIB)
Description: (§3) CEM cells were suspended in fresh culture medium and infected with HIV-1 (IIIB) or HIV-2 (ROD) at 100 CCID50 per ml of cell suspension. 100 μl of the infected cell suspension were transferred to microplate wells, mixed with 100 μl of the appropriate dilutions of compounds, and further incubated at 37° C. After 4 days, giant cell formation was recorded microscopically and the number of giant cells was estimated as percentage of the number of giant cells present in the non-treated virus-infected cell cultures.

[6] = system: CEM cells; assay: Cytostatic activity assay (cell proliferation, Coulter counter); type: cell-based; details: Homo sapiens, CCRF-CEM, 72 h, 50% inhibitory concentration of cell proliferation
Description: The cytostatic activity assay was performed in 96-well microliter plates. 5-7.5×10^4 cells and a given amount of the test compound were added to each well. The cells were allowed to proliferate for 72 h at 37° C. is a humidified CO2-controlled atmosphere. At the end of the incubation period, the cells were counted in a Coulter counter. The IC50 (half maximal inhibitory concentration) was defined as the concentration of the compound that inhibited cell proliferation by 50%.

[7] = system: HIV-2 (ROD); assay: Inhibition of HIV-2 replication in CEM cells (giant cell / syncytia formation); type: cell-based; details: for EC50: concentration required to protect CEM cells against the cytopathogenicity of HIV by 50%, HIV-2 (ROD)
Description: as §3

[8] = system: CEM cells; assay: Viability test (trypan blue); type: cell-based, Human; details: concentrations up to 10 mM
Description: CEM cells (3×10^5 cells/ml) were seeded and grown in the presence or absence of indicated concentrations of NACA. The medium was replaced and added new NACA after two days. After 48 and 96 hours, respectively, aliquots of the cells were harvested and combined with trypan blue dye before analyzed microscopically on a hemocytometer counting chamber. Blue cells were counted as nonviable and to estimate the amount of viable cells the amount of live cells was compared to the total amount of cells.

[9] = biological target: T1, recombinant HIV-1 protease (Human immunodeficiency virus type 1 group M subtype B, UniProt P04585); assay: Protease inhibition, SensoLyte HIV-1 protease assay kit; type: biochemical
T1 construct: Recombinant HIV-1 protease was purchased from AnaSpec Inc; purchased AnaSpec Inc
Description: The ability of NACA to inhibit the activity of recombinant HIV-1 protease was determined by a SensoLyte […] HIV-1 protease assay kit (AnaSpec Inc.) according to manufacturer's instructions: The compounds and the HIV-1 protease were added to a dark-bottom 96 well plate and the following controls were included: positive control (without NACA), inhibition control (pepstatin A), vehicle control (DMSO), NACA controls (to test for autofluorescence) and substrate control (assay buffer only). The plate as well as the HIV-1 protease substrate solution were incubated 15 minutes at 37° C. and 50 μl protease substrate was added to all wells. The fluorescence was measured at Ex/Em=490 nm/520 nm with a Varioskan Flash (Thermo Electron Corporation).
For the data shown in FIG. 13B, the HIV-1 protease together with NACA, a positive control (pepstatin A) or DMSO (vehicle control) were added to a dark-bottom 96 well plate. The plate as was incubated and protease substrate was added to all wells. The fluorescence was measured at Ex/Em=490 nm/520 nm. The value for the vector control (DMSO) was set to 100% in each individual repeat and all other values were normalized to this reference value. The data are means of three independent experiments; the error bars represent the SEM. P-values are indicated if significant (*: p<0.05; **: p<0.01; ***: p<0.001).

[10] = system: p24 in ACH-2 cells; assay: Production of viral particles (p24) in PMA-stimulated ACH-2 cells; type: cell-based, HIV; details: ACH-2 cells with PMA, 3 days, indicated amounts of NACA
Description: ACH-2 cells (1×10^6 cells/ml) were cultured with 100 nM PMA. After three days the cell culture supernatant was collected, cleared by centrifugation at 300×g for 10 min and passed through a 0.45 μm filter. p24 content was measured in an Architect i2000SR (Abbott Laboratories, Ill., USA) as a measurement for virus content and supernatant was either used directly or frozen at −80° C. for later usage.
as §2
For the data in FIG. 15A, ACH-2 cells were cultured with […] in the presence of the indicated amount of NACA, DMSO (vector control=0 mM NACA) or no additive (control). After 3 days, the supernatant was clarified and the amount of p24 was measured by ELISA. […] P-values were calculated between the vehicle control and the individual treatments. […]

[11] = biological target: T2, viral RT (Human immunodeficiency virus type 1 group M subtype B, UniProt P04585); assay: Reverse transcriptase (RT) inhibition, Lenti RT Activity kit; type: biochemical, HIV; details: 25 μM
T2 construct: endogenous in cells; host or cells: viral sample (virus-containing supernatant; probably from PMA-induced ACH-2 cells, inferred)
Description: The ability of the compounds to inhibit the activity of viral RT was determined by a Lenti RT Activity kit (Cavidi, Uppsala, Sweden) according to the manufacturer's instructions (protocol A): A poly-A plate was incubated with the reaction buffer for up to 1 h at 33° C. Afterwards, the viral sample together with NACA, an inhibition control (nevirapin) or a vehicle control (DMSO) were added and incubated overnight at 33° C. The plate was washed, exposed to the tracer for 90 min at 33° C. and washed again, before the substrate was added. The plate was incubated in the dark and subsequently read at 405 nm in a Multiskan RC (Labsystem).
For the data shown in FIG. 13A, a poly-A plate was incubated with the reaction buffer and subsequently, the viral sample (1:500 dilution) together with the NACA, nevirapin (inhibition control) or DMSO (vehicle control) was added and incubated overnight. The plate was exposed to the tracer and the substrate was added. The plate was incubated in the dark and read at 405 nm. The value for the vector control (DMSO) was set to 100% in each individual repeat and all other values were normalized to this reference value. The data shown in FIG. 13A are means of three independent experiments; the error bars represent the SEM. P-values are indicated if significant (*: p<0.05; **: p<0.01; ***: p<0.001).

[12] = system: HIV infected PBMCs; assay: Cell viability of HIV infected PBMCs; type: cell-based; details: varying concentrations of NACA
Description: as §1

[13] = system: viral integration in TZM-b1 cells; assay: Infectivity assay in TZM-b1 cells (luciferase; viral integration); type: cell-based, HIV-1; details: 10 mM; 40 h
Description: 1×10^5 TZM-b1 cells were infected with diluted virus suspension (see 2.3 Virus expression) in a total of 0.2 ml DMEM medium in the presence of NACA, an inhibition control (nevirapin) or a vehicle control (DMSO). After 40 h at 37° C., the cells were assayed in a Luminoskan Ascent (Thermo Labsystems) for luciferase activity using the OneGlo luciferase assay system (Promega).
To determine additional targets of NACA inhibition within early stage processes of viral integration (viral entry to integration into the host genome), an infectivity assay was performed. TZM-b1 cells contain a luciferase gene that is under control of the HIV-1 promoter. Upon viral entry, transcription and integration into the host genome, luciferase is expressed and can convert the added substrate to the fluorescent product. The amount of measured product is quantitatively correlated to the amount of integrated virus in the test culture.
For the data in FIG. 14, TZM-b1 cells were infected with a diluted virus suspension in a total of 0.2 ml DMEM medium in the presence of the 25 μM or 10 mM NACA, an inhibition control (nevirapin) or a vehicle control (DMSO). Additionally, one well was treated with medium only instead of the virus dilution (no virus, negative control). After 40 h, the cells were assayed for luciferase activity. […] P-values were calculated between the vehicle control and the individual treatments. […]

Compound: CC(=O)N[C@@H](CS)C(N)=O
- effect on HIV replication ([1]; HIV infected PBMCs): inhibitor effect
- HIV replication inhibited ([1]; HIV infected PBMCs, concentrations of 10 mM and above): ~100%
- block of replication ([1]; lymphocytes, 20 mM concentration): 100%
- reverse transcriptase activity ([2]; U1 cells activated with 1 ng/mL TNF-α or 10 ng/mL IL-6): significant reduction
- concentration effective in reducing HIV replication in activated U1 cells (RT activity) ([2]; U1 cells activated with 1 ng/mL TNT-α, 10 ng/mL IL-6 or 10 nM PMA): 1 to 10 µM
- relative amounts of reverse transcriptase activity ([2]; U1 cells, between days 3 and 5): did not alter
- concentration effective in reducing HIV replication in activated U1 cells ([2]; activated U1 cells): 10 to 333 µM
- U1 cell viability or proliferation as measured by [3H]-thymidine incorporation [3]: did not have a large effect
- effect on infectivity when NACA was added after the production of the viral particles (NACA added) ([4]; final concentration 1/100 of the indicated amount): not visible
- infectivity of the particles produced in the presence of NACA (NACA grown) ([4]; higher concentrations (5 mM to 10 mM)): decreased significantly
- infectivity of the particles produced in the presence of NACA (NACA grown) ([4]; low concentrations (0 mM to 1 mM)): auxiliary effect
- Ratio IC50/EC50 (CEM) HIV-1 ([5]; CEM cells): 3
- EC50 ([5]; Human immunodeficiency virus 1, IIIB, CCRF-CEM): ~230 µM
- EC50 [5]: 224 ± 86 µM
- IC50 [6]: ~564 µM
- Ratio IC50/EC50 (CEM) HIV-2 ([7]; CEM cells): 2
- EC50 ([7]; Human immunodeficiency virus 2, CCRF-CEM): ~230 µM
- EC50 [7]: 234 µM
- CEM cells alive [8]: more than 99%
- effect on viral protease activity ([9]; 25 μM): no effect
- effect on protease activity ([9]; 10 mM): significant effect
- amount of p24 [10]: not affected
- effect on viral RT activity [11]: no effect
- cell viability [12]: did not affect cell viability
- effect on viral integration [13]: more predominant effect
